Measurements published in patent US7964560B2, “Hepatitis C virus inhibitors” (Bristol-Myers Squibb Company, priority 2008, dated 2011).

Legend:
[1] = biological target: T1, porcine pancreatic elastase (PPE) (Sus scrofa, UniProt P00772); assay: Specificity assay, porcine pancreatic elastase; assay type: biochemical
T1 construct: purchased Sigma, EMDbiosciences
Method: (§1) The specificities of compounds of the present disclosure were determined against a variety of serine proteases: human neutrophil elastase (HNE), porcine pancreatic elastase (PPE) and human pancreatic chymotrypsin and one cysteine protease: human liver cathepsin B. In all cases a 96-well plate format protocol using a fluorometric Amino-Methyl-Coumarin (AMC) substrate specific for each enzyme was used as described previously (PCT Patent Application No. WO 00/09543) with some modifications to the serine protease assays. All enzymes were purchased from Sigma, EMDbiosciences while the substrates were from Bachem, Sigma and EMDbiosciences.
(§2) Compound concentrations varied from 100 to 0.4 μM depending on their potency. The enzyme assays were each initiated by addition of substrate to enzyme-inhibitor pre-incubated for 10 min at room temperature and hydrolysis to 15% conversion as measured on CYTOFLUOR®.
(§3) 50 mM Tris-HCl, pH 8.0, 50 mM NaCl, 0.1 mM […], 3% DMSO, 0.02% Tween-20, 5 μM succ-AAPV-AMC and 20 nM HNE or 8 nM PPE;
(§4) The percentage of inhibition was calculated using the formula: [1−((UVinh−UVblank)/(UVctl−UVblank))]×100
(§5) A non-linear curve fit was applied to the inhibition-concentration data, and the 50% effective concentration (IC50) was calculated by the use of Excel XLfit software.

[2] = biological target: T2, human neutrophil elastase (HNE) (Homo sapiens, UniProt P08246); assay: Specificity assay, human neutrophil elastase; assay type: biochemical; conditions: read-out: HLE (specificity assay IC50)
T2 construct: purchased Sigma, EMDbiosciences
T2 sequence (P08246 30-267): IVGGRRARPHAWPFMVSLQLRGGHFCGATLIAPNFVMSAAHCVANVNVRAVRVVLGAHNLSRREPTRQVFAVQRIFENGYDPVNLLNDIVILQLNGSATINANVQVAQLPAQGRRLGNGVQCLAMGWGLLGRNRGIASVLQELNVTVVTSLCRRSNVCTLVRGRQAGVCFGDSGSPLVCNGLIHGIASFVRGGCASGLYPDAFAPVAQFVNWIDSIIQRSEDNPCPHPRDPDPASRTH
Method: as §1, §2, §3, §4, §5

[3] = biological target: T3, HCV NS3/4A protease complex, H77 strain (Hepatitis C virus genotype 1a, UniProt P27958, C1454S/C1711G); assay: FRET peptide assay to monitor HCV NS3/4A proteolytic activity (H77 strain); assay type: biochemical, Hepatitis C virus (1a genotype)
T3 construct: DNA encoding the recombinant HCV NS3/4A protease complex (amino acids 1027 to 1711) for these strains; His tag (inferred from pET21b vector and Ni-NTA purification); made in house; host or cells: Escherichia coli BL21 (DE3), pET21b
T3 sequence (P27958 1027-1711 C1454S/C1711G, one chain of several): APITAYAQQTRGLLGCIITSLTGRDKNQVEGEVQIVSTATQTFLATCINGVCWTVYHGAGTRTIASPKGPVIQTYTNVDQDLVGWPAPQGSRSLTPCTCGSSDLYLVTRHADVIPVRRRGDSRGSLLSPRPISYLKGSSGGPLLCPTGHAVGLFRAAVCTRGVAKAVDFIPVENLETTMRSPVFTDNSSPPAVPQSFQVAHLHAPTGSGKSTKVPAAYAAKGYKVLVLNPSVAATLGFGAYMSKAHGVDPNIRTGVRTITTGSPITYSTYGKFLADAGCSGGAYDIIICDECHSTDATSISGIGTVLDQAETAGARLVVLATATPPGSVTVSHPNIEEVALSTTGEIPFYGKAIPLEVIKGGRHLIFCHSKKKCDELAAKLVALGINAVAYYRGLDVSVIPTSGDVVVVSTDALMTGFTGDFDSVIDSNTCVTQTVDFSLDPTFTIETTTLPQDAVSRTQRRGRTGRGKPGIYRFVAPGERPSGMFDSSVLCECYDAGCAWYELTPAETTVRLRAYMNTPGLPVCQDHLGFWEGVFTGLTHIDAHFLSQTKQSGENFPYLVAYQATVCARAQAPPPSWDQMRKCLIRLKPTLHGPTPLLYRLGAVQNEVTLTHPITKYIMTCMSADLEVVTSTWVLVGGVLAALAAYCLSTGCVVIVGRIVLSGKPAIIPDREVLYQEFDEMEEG
Excerpt: (§6) HCV […] protease complexes, derived from the BMS strain, H77 strain or J4L6S strain, were generated, as described below. These purified recombinant proteins were generated for use in a homogeneous assay (see below) to provide an indication of how effective compounds of the present disclosure would be in inhibiting HCV NS3 proteolytic activity.
(§7) Serum from an HCV-infected patient was obtained from Dr. T. Wright, San Francisco Hospital. An engineered full-length cDNA (compliment deoxyribonucleic acid) template of the HCV genome (BMS strain) was constructed from DNA fragments obtained by reverse transcription-PCR (RT-PCR) of serum RNA (ribonucleic acid) and using primers selected on the basis of homology between other genotype 1a strains. From the determination of the entire genome sequence, a genotype 1a was assigned to the HCV isolate according to the classification of Simmonds et al. (See Simmonds, P. et al., J. Clin. Microbiol., 31(6), 1493-1503 (1993)). […] The infectious clones, H77 (1a genotype) and J4L6S (1b genotype) were obtained from R. Purcell (NIH) and the sequences are published in GENBANK® (AAB67036, see Yanagi, M. et al., Proc. Natl. Acad. Sci. U.S.A., 94(16):8738-8743 (1997); AF054247, see Yanagi, M. et al., Virology, 244(1):161-172 (1998)).
(§8) The H77 and J4L6S strains were used for production of recombinant NS3/4A protease complexes. […]

[4] = biological target: T4, HCV NS3/4A protease complex, J4L6S strain (Hepatitis C virus genotype 1b, UniProt O92972, C1454S/C1711G); assay: FRET peptide assay to monitor HCV NS3/4A proteolytic activity (J4L6S strain); assay type: biochemical, Hepatitis C virus (1b genotype)
T4 construct: DNA encoding the recombinant HCV NS3/4A protease complex (amino acids 1027 to 1711) for these strains; His tag (inferred from pET21b vector and Ni-NTA purification); made in house; host or cells: Escherichia coli BL21 (DE3), pET21b
T4 sequence (O92972 1027-1711 C1454S/C1711G, one chain of several): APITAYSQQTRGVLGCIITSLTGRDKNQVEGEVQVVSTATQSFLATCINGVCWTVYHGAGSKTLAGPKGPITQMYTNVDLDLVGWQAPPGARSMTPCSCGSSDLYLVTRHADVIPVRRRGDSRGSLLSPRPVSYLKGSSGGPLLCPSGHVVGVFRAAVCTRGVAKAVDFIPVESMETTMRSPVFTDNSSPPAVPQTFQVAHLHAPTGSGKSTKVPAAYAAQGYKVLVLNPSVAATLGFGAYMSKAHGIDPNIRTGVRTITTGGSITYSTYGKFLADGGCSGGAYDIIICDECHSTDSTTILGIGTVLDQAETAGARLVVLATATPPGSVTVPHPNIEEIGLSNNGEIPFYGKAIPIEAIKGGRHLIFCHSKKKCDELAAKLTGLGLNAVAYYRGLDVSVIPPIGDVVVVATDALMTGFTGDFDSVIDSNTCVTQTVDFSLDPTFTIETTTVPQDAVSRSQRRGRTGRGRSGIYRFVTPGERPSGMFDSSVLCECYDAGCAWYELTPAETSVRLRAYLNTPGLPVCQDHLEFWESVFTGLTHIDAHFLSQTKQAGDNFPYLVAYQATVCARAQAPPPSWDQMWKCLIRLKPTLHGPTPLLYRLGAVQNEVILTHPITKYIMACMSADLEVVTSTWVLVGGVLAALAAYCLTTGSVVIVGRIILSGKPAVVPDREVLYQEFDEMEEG
Excerpt: as §6, §7, §8

T1 sequence (P00772 27-266): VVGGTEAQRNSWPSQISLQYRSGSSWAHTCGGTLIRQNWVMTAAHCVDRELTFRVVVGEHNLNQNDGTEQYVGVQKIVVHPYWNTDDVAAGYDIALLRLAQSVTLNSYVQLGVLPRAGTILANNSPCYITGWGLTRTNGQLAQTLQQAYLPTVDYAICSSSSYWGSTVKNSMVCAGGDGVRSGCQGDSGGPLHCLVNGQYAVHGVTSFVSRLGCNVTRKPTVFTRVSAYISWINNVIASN

**Q.** Which results are given for `C=C[C@@H]1C[C@]1(NC(=O)[C@@H]1C[C@@](SCCCC)(c2ccc(-c3ccccc3)cc2)CN1C(=O)[C@@H](NC(=O)OC(C)(C)C)C(C)(C)C)C(=O)NS(=O)(=O)C1CC1` [Example 1, tert-butyl (S)-1-((2S,4R)-4-(biphenyl-4-yl)-4-(butylthio)-2-((1R,2S)-1-(cyclopropylsulfonylcarbamoyl)-2-vinylcyclopropylcarbamoyl)pyrrolidin-1-yl)-3,3-dimethyl-1-oxobutan-2-ylcarbamate]?
**A.** IC50 [1]: > 25000 nM; IC50 [2]: > 12100 nM; IC50 [3]: 1.7 nM; IC50 [4]: 1.1 nM
